Holding throughout (type): cell-based
Test [1] concerns TGFα release from HEK-293 cells. Nature of the test: Counter screen (Example 4b): PMA-stimulated TGFα release from HEK-293 cells, AP readout. To be noted: Homo sapiens, HEK293, HEK-293 cells expressing TGFα-AP, PMA 100 ng/mL, 2 h. The method, then: A tertiary counterscreen was also performed to monitor the release of TGFα, which is a substrate of iRhom1/ADAM17 and iRhom2/ADAM17, so its release should not be blocked by an iRhom2-selective inhibitor (Maretzky T et al. (July 2013), “iRhom2 controls the substrate selectivity of stimulated ADAM17-dependent ectodomain shedding”, PNAS 110(28): 11433-11438; and Li X et al. (May 2015), “iRhoms 1 and 2 are essential upstream regulators of ADAM17-dependent EGFR signaling”, PNAS 112(19): 6080-6085).
(§1) Expression plasmids for alkaline phosphatase (AP)-fused human KL2 and TGFα had been previously designed and generated through gene synthesis followed by subcloning into the pcDNA3.1(+)/Hygro expression vector. […] Subsequently, DNA amplifications were performed to obtain sufficient amounts of the expression vectors. The quality of DNA and gene sequences were confirmed through restriction digest and Sanger sequencing. In parallel, cell culture of HEK-293 cells was initiated. Master and working cell banks were prepared, scaled up and transfected with the respective constructs by electroporation. During cell culturing, cell density and viability were monitored to ensure optimal conditions for the transfections. After PMA stimulation, AP-coupled KL2 or TGFα were detected by measurement of AP activity in the supernatant.
(§2) After electroporation, cells were further cultured in presence of selection antibiotics, hygromycin B, to generate stably transfected polyclonal cell pools. For both assays, KL2 and TGFα shedding, the respective selected pool turned out to be suitable. Final assay conditions were determined for the selected pools. For all experiments, batimastat (BB94, 10 μM) was used as positive control for full inhibition of KL2 or TGFα shedding.
(§3) The wells of sterile 384-well flat bottom clear plates for TGF-AP assays were coated with 10 μL of 0.1 mg/mL poly-d-lysine for 3-4 hr at 25° C. or overnight at 4° C., then washed 2× with PBS and patted dry. 60 μL of cells (20,000/well) were added to the sterile 384-well plate and incubated in Optimem (with 2% FCS and 1% Pen-strep) overnight at 37° C. (5% CO2). After incubation overnight, 55 μL medium were removed with a BioTek EL406 and 10 μL of prediluted compounds were added to the cells for a final concentration of 20 μM. After incubation for 15 min, 15 μL of PMA (100 ng/mL final conc.) were added. The cells were incubated for 2 h at 37° C. (5% CO2). Then, the plates were centrifuged for 5 min at 1000 rpm and 12 μL of the supernatant was transferred to a fresh 384 well plate. 12 μL of pNPP p-nitrophenyl phosphate (final 1 M pNPP) was added. AP reaction was performed for 1 h at 37° C. The reaction was stopped by addition of 12 μL of NaOH (1 M final conc.), the plates were centrifuged to remove air bubbles and the absorbance of pNP was measured at 405 nm.
(In general: A counterscreen serves to expose hits that act by an unwanted route or on another target.)

The test system of test [2] is KL2 release from HEK-293 cells. Nature of the test: Secondary screen (Example 3b): PMA-stimulated KL2 release from HEK-293 cells, AP readout. To be noted: Homo sapiens, HEK293, HEK-293 cells expressing KL2-AP, PMA 100 ng/mL, 2 h, read-out: Secondary Screen IC50 KitL2. As to the method: (§4) Two separate screens to identify novel small molecule inhibitors of iRhom2/ADAM17 activity were developed. […] Therefore, the primary screen for small molecule inhibitors of iRhom2/ADAM17 was a screen for inhibitors that blocked the release of TNFα from LPS-stimulated THP-1 human myeloid cells, a process that depends on iRhom2 and ADAM17. Since the release of TNFα from THP-1 cells can be blocked at many stages of the LPS/TLR4/iRhom2/ADAM17 pathway, a secondary screen was performed for another iRhom2/ADAM17 selective substrate, Kit-ligand 2 (KL-2) (Maretzky T et al. (July 2013), “iRhom2 controls the substrate selectivity of stimulated ADAM17-dependent ectodomain shedding”, PNAS 110(28): 11433-11438) in a different human cell type, human embryonic kidney cells (HEK 293).
as §1, §2
as §3, with “for KL2-AP” for “for TGF-AP”, “cells (40,000/well)” for “cells (20,000/well)”, “and 3” for “and 12”, “well plate and 9 μL of AP Balance Buffer was added per well.” for “well plate.”

For test [3], the system named is TNFα release from THP-1 cells. Nature of the test: Primary screen (Example 1b): LPS-stimulated TNFα release from THP-1 cells, overnight pre-incubation, HTRF. To be noted: Homo sapiens, overnight with inhibitor, 100 ng/mL LPS, 3 h, normalised to 10 μM Batimastat. As to the method: as §4
THP-1 cells were plated in low volume 384 wells (10,000 cells per well in 12.6 μL RPMI medium) together with inhibitors or 10 μM BB94 and incubated over night. The next day, TNFα shedding was initiated by stimulation of THP-1 cells with 100 ng/mL LPS (1.8 μL of an 800 ng/mL LPS stock) for 3 hrs at 37° C. The extent of released TNFα was detected with the corresponding HTRF antibodies labeled with europium cryptate (donor) and d2 (acceptor). The HTRF signal was generated by proximity of europium cryptate and d2. All detection reagents were purchased from Cisbio. TNFα detection was performed according to the manufacturer's protocol (Product Insert for Cisbio TNFα (h) Kit Part #62HTNFAPEG & 62HTNFAPEH;
Low volume 384 well plates were pre-coated with small molecule library compounds for a final concentration of 20 μM in a 15 μL reaction, or 0.75 μL of 200 μM stock of BB94 in 5% DMSO (final concentration 0.25%). 12.6 μL of cell suspension [8E5/mL; 10,000 cells/well; culture RPMI medium] and pre-incubated at 37° C., 5% CO2, over night. The next day, 1.8 μL of an 800 ng/mL LPS stock was added [final concentration 100 ng/mL in 15 μL assay] and the cells were incubated at 37° C., 5% CO2, for 3 h. Subsequently, 3 μL of the HTRF-mix [used at 1:3 dilution of cisbio HTRF human TNF] was added and the plates were incubated for an additional 2 hrs at 25° C. After an incubation at room temperature for 2 h, the HTRF readout was performed. Then data evaluation for normalization against the 10 μM Batimastat control (=100% […]) was applied.
For orientation: TR-FRET usually uses a lanthanide donor and a delayed reading to cut background.

pIC50: −log10 of the molar value.

What is called pIC50 is −log10 of the IC50, conventionally taken in molar units. `O=C1Nc2ccccc2/C1=N\Nc1nc(Nc2ccccc2)nc(Nc2ccccc2)n1` [Compound 46]: the pIC50 is below 4.40 in test [1], 4.95 in test [2] and 5.57 in test [3].

As to `O=C(c1c(Cl)cccc1Cl)N1CCC(Cc2ccc3c(c2)OCO3)CC1` [Compound 43], the pIC50 in test [1] is below 4.40; in test [2], 4.45; in test [3], 5.40.

For the molecule `O=C(NCCc1cccnc1)c1ccc(-c2cc(-c3ccc(N4CCCCC4)cc3)n[nH]2)cc1` [Compound 44], the negative logarithm of the IC50 (pIC50) in test [1] was below 4.40; in test [2], below 4.40; in test [3], 4.97.

In the case of `Cc1cc(C)c2nc(N3CCNCC3)sc2c1` [Compound 49], the values for the pIC50 in test [1], in test [2] and in test [3] were below 4.40, below 4.40 and 4.88, respectively.

In the case of `Cc1ccccc1Nc1nc(NCCCO)nc2c1cnn2-c1ccccc1` [Compound 50], the pIC50 in test [1] was below 4.40; in test [2], 4.79; in test [3], 4.96.

Turning to `Cc1cc(NCCCn2ccnc2)n2ncc(-c3ccc(Cl)cc3)c2n1` [Compound 48], the pIC50 in test [1] was below 4.40; in test [2], below 4.40; in test [3] it was 4.88.

Turning to `Cc1ccsc1C1Nc2ccc3ccccc3c2C2=C1C(=O)CCC2` (stereo not drawn) [Compound 45], the pIC50 in test [1] is below 4.40; in test [2], 4.55; in test [3], below 4.49.

For the molecule `O=C(NC1CCCCCCC1)C1CCCN(c2nc3ccc(Br)cc3[nH]2)C1` (stereo not drawn) [Compound 47], the pIC50 in test [1] was below 4.40; in test [2] it was 5.26; in test [3] it was 5.62.
